Experimental data: PubChem BioAssay AID330 (DTP/NCI, 2004)
Values joined by “and” are separate entries in the source; they are usually repeats but may differ in a detail not shown here. Identical values can stand only once. Inconclusive results and toxic doses are left out. The calls were made as follows: active = survival T/C of 150% or more; inactive = T/C below 125% in these data. Peptide text beside a SMILES is read from it. * marks the point of attachment. Trt = c1ccc(C(c2ccccc2)(c2ccccc2)*)cc1; Boc = CC(C)(C)OC(=O)*; Bn = c1ccc(C*)cc1

Test system: P388 leukemia ip, CD2F1 mice, survival T/C
Assay: NCI In Vivo Anticancer Drug Screen. Data for tumor model P388 Leukemia (intraperitoneal) in CD2F1 (CDF1) mice
Conditions: endpoint: median survival time, higher = longer survival
Summary of the method: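 Mice carrying the transplanted tumor received test compound or vehicle. Survival was recorded in each group, and the value is the treated-group measurement divided by that of the vehicle-treated control group.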

[1] = dose: 6.25 mg/kg/injection, schedule: Q01DX009 (ip), vehicle: saline with Tween-80
[2] = dose: 12.5 mg/kg/injection, schedule: Q01DX009 (ip), vehicle: saline with Tween-80
[3] = dose: 25.0 mg/kg/injection, schedule: Q01DX009 (ip), vehicle: saline with Tween-80
[4] = dose: 100.0 mg/kg/injection, schedule: Q01DX009 (ip), vehicle: saline with Tween-80
[5] = dose: 100.0 mg/kg/injection, schedule: Q04DX003 (ip), vehicle: Klucel (hydroxypropylcellulose) (HPC)
[6] = dose: 200.0 mg/kg/injection, schedule: Q04DX003 (ip), vehicle: Klucel (hydroxypropylcellulose) (HPC)
[7] = dose: 400.0 mg/kg/injection, schedule: Q04DX003 (ip), vehicle: Klucel (hydroxypropylcellulose) (HPC)
[8] = dose: 25.0 mg/kg/injection, schedule: Q04DX002 (ip), vehicle: saline with Tween-80
[9] = dose: 50.0 mg/kg/injection, schedule: Q04DX002 (ip), vehicle: saline with Tween-80
[10] = dose: 100.0 mg/kg/injection, schedule: Q04DX002 (ip), vehicle: saline with Tween-80
[11] = dose: 50.0 mg/kg/injection, schedule: Q01DX005 (ip), vehicle: Klucel (hydroxypropylcellulose) (HPC)
[12] = dose: 100.0 mg/kg/injection, schedule: Q01DX005 (ip), vehicle: Klucel (hydroxypropylcellulose) (HPC)
[13] = dose: 200.0 mg/kg/injection, schedule: Q01DX005 (ip), vehicle: Klucel (hydroxypropylcellulose) (HPC)
[14] = dose: 60.0 mg/kg/injection, schedule: Q01DX005 (ip), vehicle: Klucel (hydroxypropylcellulose) (HPC)
[15] = dose: 120.0 mg/kg/injection, schedule: Q01DX005 (ip), vehicle: Klucel (hydroxypropylcellulose) (HPC)
[16] = dose: 240.0 mg/kg/injection, schedule: Q01DX005 (ip), vehicle: Klucel (hydroxypropylcellulose) (HPC)
[17] = dose: 60.0 mg/kg/injection, schedule: Q01DX005 (ip), vehicle: saline with Tween-80
[18] = dose: 50.0 mg/kg/injection, schedule: Q01DX005 (ip), vehicle: saline with Tween-80
[19] = dose: 100.0 mg/kg/injection, schedule: Q01DX005 (ip), vehicle: saline with Tween-80
[20] = dose: 200.0 mg/kg/injection, schedule: Q01DX005 (ip), vehicle: saline with Tween-80

Measured: T/C

OCC1OC(n2nc(Cl)c3ccccc32)C(O)C1O (stereo not given)
inactive: [1] 102 % of control | [2] 98 % of control | [3] 94 % of control | dose: 32.0 mg/kg/injection, schedule: Q01DX002 (ip), vehicle: saline with Tween-80 104 % of control | dose: 64.0 mg/kg/injection, schedule: Q01DX002 (ip), vehicle: saline with Tween-80 106 % of control and 107 % of control | [4] 91 % of control | dose: 128.0 mg/kg/injection, schedule: Q01DX002 (ip), vehicle: saline with Tween-80 106 % of control and 107 % of control

O=C1NC(c2ccccc2)(c2ccccc2)C(=O)N1CCS
inactive: dose: 25.0 mg/kg/injection, schedule: Q04DX003 (ip), vehicle: Klucel (hydroxypropylcellulose) (HPC) 99 % of control and 106 % of control | dose: 50.0 mg/kg/injection, schedule: Q04DX003 (ip), vehicle: Klucel (hydroxypropylcellulose) (HPC) 100 % of control | [5] 100 % of control and 114 % of control | [6] 104 % of control and 108 % of control | [7] 112 % of control and 114 % of control

CC1CCCN2C(=O)CN(N3CCOCC3)CC(=O)N12 (stereo not given)
inactive: [8] 100 % of control | dose: 25.0 mg/kg/injection, schedule: Q04DX002 (ip), vehicle: saline 95 % of control | [9] 94 % of control | dose: 50.0 mg/kg/injection, schedule: Q04DX002 (ip), vehicle: saline 95 % of control | [10] 99 % of control | dose: 100.0 mg/kg/injection, schedule: Q04DX002 (ip), vehicle: saline 102 % of control | dose: 200.0 mg/kg/injection, schedule: Q04DX002 (ip), vehicle: saline with Tween-80 94 % of control | dose: 200.0 mg/kg/injection, schedule: Q04DX002 (ip), vehicle: saline 94 % of control

Cc1cc(O)c(Br)cc1O
inactive: [11] 100 % of control | [12] 97 % of control | [13] 97 % of control

CC1=CC[N+](C)(C)C(C(N)=O)C1 (stereo not given)
inactive: dose: 50.0 mg/kg/injection, schedule: Q01DX005 (ip), vehicle: saline 108 % of control | dose: 100.0 mg/kg/injection, schedule: Q01DX005 (ip), vehicle: saline 105 % of control

CCN(CC)CCSC1CC2CC(C1C)C2(C)C (stereo not given)
inactive: [11] 99 % of control | [12] 109 % of control | [13] 104 % of control

CCN(CC)C(=O)Nc1ccc(OCC(O)CNC(C)(C)C)c(C(C)=O)c1 (stereo not given)
inactive: dose: 50.0 mg/kg/injection, schedule: Q01DX009 (ip), vehicle: water 114 % of control | dose: 100.0 mg/kg/injection, schedule: Q01DX009 (ip), vehicle: water 102 % of control | dose: 200.0 mg/kg/injection, schedule: Q01DX009 (ip), vehicle: water 105 % of control

O=C(Nc1ccc(Nc2ccc3c(c2)C(=O)c2ccccc2C3=O)c2c1C(=O)c1ccccc1C2=O)c1ccccc1
inactive: [11] 92 % of control | [12] 91 % of control | [13] 88 % of control

CN(C)c1ccc(/C=N/NC(=O)c2ccccc2NC(=O)c2ccccc2Cl)cc1
inactive: dose: 7.5 mg/kg/injection, schedule: Q01DX005 (ip), vehicle: Klucel (hydroxypropylcellulose) (HPC) 86 % of control | dose: 15.0 mg/kg/injection, schedule: Q01DX005 (ip), vehicle: Klucel (hydroxypropylcellulose) (HPC) 86 % of control

CCOc1c(N=Nc2ccc([N+](=O)[O-])cc2)c(C)nn1C(=S)S
inactive: [14] 100 % of control | [15] 95 % of control | [16] 100 % of control

c1ccc(C2=NC(=c3ccc(=C4N=C(c5ccccc5)C(c5ccccc5)=N4)cc3)N=C2c2ccccc2)cc1
inactive: [14] 90 % of control | [15] 90 % of control | [16] 100 % of control

O=C(Nc1ccc(Cl)cc1)Nc1nnc2nc(CC(=O)c3ccc4ccccc4c3)c(=O)[nH]n12
inactive: [17] 97 % of control | dose: 120.0 mg/kg/injection, schedule: Q01DX005 (ip), vehicle: saline with Tween-80 99 % of control | dose: 240.0 mg/kg/injection, schedule: Q01DX005 (ip), vehicle: saline with Tween-80 97 % of control

Cc1nc([N+](=O)[O-])c(Sc2nncc(-c3ccccc3)n2)n1C
inactive: [11] 111 % of control | [12] 104 % of control

CC(=O)N/C(=C/c1ccccc1)C(=O)N1CCCC1C(=O)O (stereo not given)
inactive: dose: 12.5 mg/kg/injection, schedule: Q01DX009 (ip), vehicle: saline 105 % of control | dose: 25.0 mg/kg/injection, schedule: Q01DX009 (ip), vehicle: saline 104 % of control | dose: 50.0 mg/kg/injection, schedule: Q01DX009 (ip), vehicle: saline 96 % of control

Cn1c2cc(F)ccc2c(=O)c2c(O)cc3c(c21)C=CC(C)(C)O3
inactive: [11] 94 % of control | [12] 92 % of control | [13] 94 % of control

CSC(=S)NN=C1CCCCC1
inactive: dose: 0.78 mg/kg/injection, schedule: Q01DX009 (ip), vehicle: saline with Tween-80 97 % of control | dose: 1.56 mg/kg/injection, schedule: Q01DX009 (ip), vehicle: saline with Tween-80 108 % of control | dose: 3.13 mg/kg/injection, schedule: Q01DX009 (ip), vehicle: saline with Tween-80 105 % of control | [1] 98 % of control | [2] 113 % of control

CCOP1(OCC)(SSC)OC(=O)C(C)S1 (stereo not given)
inactive: dose: 5.0 mg/kg/injection, schedule: Q01DX005 (ip), vehicle: saline with Tween-80 108 % of control | dose: 10.0 mg/kg/injection, schedule: Q01DX005 (ip), vehicle: saline with Tween-80 101 % of control | dose: 20.0 mg/kg/injection, schedule: Q01DX005 (ip), vehicle: saline with Tween-80 108 % of control | [17] 94 % of control

CC(NC(=O)C(Cc1c[nH]c2ccccc12)NC(=O)OCc1ccccc1)C(=O)O (stereo not given)
inactive: [18] 119 % of control | [19] 103 % of control | [20] 97 % of control

COC(=O)/C(=C\c1ccncc1)c1cccc2ccccc12
inactive: [3] 101 % of control | dose: 50.0 mg/kg/injection, schedule: Q01DX009 (ip), vehicle: saline with Tween-80 98 % of control | [4] 104 % of control | dose: 200.0 mg/kg/injection, schedule: Q01DX009 (ip), vehicle: saline with Tween-80 99 % of control

CCC(Nc1nncs1)Nc1nncs1
inactive: [11] 100 % of control | [12] 99 % of control | [13] 98 % of control

O=C1CSC(c2ccc(O)c(O)c2)N1c1nncs1 (stereo not given)
inactive: [8] 96 % of control | [9] 100 % of control | [10] 98 % of control

CC1(C)OC2OC3C(O)C(=O)OC3C2O1 (stereo not given)
inactive: dose: 60.0 mg/kg/injection, schedule: Q01DX005 (ip), vehicle: saline 107 % of control | dose: 120.0 mg/kg/injection, schedule: Q01DX005 (ip), vehicle: saline 97 % of control | dose: 240.0 mg/kg/injection, schedule: Q01DX005 (ip), vehicle: saline 99 % of control

Cc1ccc(S(=O)(=O)N2CC3CC=C(Cc4ccnc5ccccc45)CC(C2)C3=O)cc1 (stereo not given)
inactive: [5] 105 % of control | [6] 91 % of control | [7] 96 % of control

C[C@H]1CCC/C=C/[C@@H]2C[C@H](O)C[C@H]2[C@H](O)/C=C/C(=O)O1
inactive: [5] 104 % of control | [6] 90 % of control

O=C1CCN(C(=O)C2=CC(=O)OC2)C1
inactive: dose: 12.5 mg/kg/injection, schedule: Q01DX005 (ip), vehicle: Klucel (hydroxypropylcellulose) (HPC) 100 % of control | dose: 25.0 mg/kg/injection, schedule: Q01DX005 (ip), vehicle: Klucel (hydroxypropylcellulose) (HPC) 93 % of control | [11] 100 % of control

CC(=O)NCCc1ccc2c(c1)OCO2
inactive: dose: 25.0 mg/kg/injection, schedule: Q01DX001 (ip), vehicle: saline + alcohol 105 % of control | dose: 50.0 mg/kg/injection, schedule: Q01DX001 (ip), vehicle: saline + alcohol 99 % of control | dose: 100.0 mg/kg/injection, schedule: Q01DX001 (ip), vehicle: saline + alcohol 98 % of control

CCOC(=O)CNC(=O)C(CSCc1ccccc1)NC(=O)C(CSC(c1ccccc1)(c1ccccc1)c1ccccc1)NC(=O)OC(C)(C)C (stereo not given) (Boc-Cys(Trt)-Cys(Bn)-Gly-OEt; configuration not given here)
inactive: [11] 101 % of control | [12] 101 % of control | [13] 99 % of control

COc1ccc(CNSC(c2ccccc2)(c2ccccc2)c2ccccc2)cc1
inactive: [18] 98 % of control | [19] 101 % of control | [20] 97 % of control
